This is an account of results in patent publication US7018803B2, “Inhibitors of collagen assembly” (Drexel University College of Medicine, priority 1997, dated 2006).

No end group written: not given here.

Assay [1] has as its target T1, type I collagen (pCcollagen I) (Homo sapiens, UniProt P02452).
T1 construct: made in house; host or cells: cultured human skin fibroblasts (endogenous procollagen purified from the medium, 14C-labelled)
It counts as biochemical. As to conditions: for inhibition of fibril assembly (in words): peptide 2.5 mM. As for the experimental part:
Assembly of collagen I into fibrils de novo was assayed under conditions employed previously (Miyahara et al., 1982, J. Biol. Chem. 257:8442–8448; Kadler et al., 1987, J. Biol. Chem. 262:15696–15701; Kadler et al., 1990, Ann. N.Y. Acad. Sci. 580:214–224; Kadler et al., 1990, Biochem. J. 268:339–343; Fertala et al., 1996, J. Biol. Chem. 271:14864–14869). In brief, ^14C-labeled type I procollagen was recovered from the medium of cultured human skin fibroblasts and was purified with two chromatographic steps to homogeneity. The type I procollagen was processed to pccollagen I by cleavage with procollagen N-proteinase purified from organ cultures of chick embryo tendons. “pCcollagen” is a partially processed procollagen which is missing the […]. The pCcollagen was then isolated on a gel filtration column. Fibril assembly was assayed in a […] reaction volume in a […] plastic centrifuge tube sealed with a plunger and containing a physiological bicarbonate buffer, […] pCcollagen I, and 15 units/ml procollagen C-proteinase purified from chick embryo tendons. Potentially inhibitory peptides were added to the reaction mixture to final concentrations of 0.5 to 2.5 mM in […] of buffer. After incubation for 0.5 to 24 hours at 37° C., the sample was centrifuged 13,000×g for 10 min. The pellet and supemate fractions were separated by electrophoresis on a 7.5% polyacrylamide gel in SDS and the gel assayed either with a phosphor storage imager (Molecular Dynamics) or by staining with colloidal Coomassie blue (Brilliant Blue, Sigma) and analysis with a densitometer (Personal Densitometer, Molecular Dynamics). Alternatively, the reaction was carried out in a sealed chamber on a microscopic slide and followed by Dark field light microscopy (Zeiss model 009).
F6 contained sequences that spanned the vertebrate collagenase cleavage site of -Gly-le- in the D4 period of the α1(I) chain. […] The peptides were added in concentrations of 2.5 mM to the system for assaying fibril formation by the cleavage of pCcollagen with C-proteinase (Miyahara et al., 1982, J. Biol. Chem. 257:8442–8448; Kadler et al., 1987, J. Biol. Chem. 262:15696–15701; Kadler et al., 1990, Ann. N.Y. Acad. Sci. 580:214–224; Kadler et al., 1990, Biochem. J. 268:339–343; Fertala et al., 1996, J. Biol. Chem. 271:14864–14869).

Assay [2] addresses T2, type I collagen (monomeric collagen, Vitrogen 100) (Bos taurus, UniProt P02453).
T2 construct: purchased Collagen Biomaterials Vitrogen 100
The assay is described as follows: Competition binding assay on microtiter plates with biotinylated telopeptides. On the procedure:
A collagen assembly inhibitory peptide is “biologically active” if it is capable of inhibiting collagen self-assembly in any one of the assays described herein. For example, in a high throughput assay described herein in the description of the data shown in FIGS. 8 and 9, a series of wells in a microtiter plate are coated with monomeric collagen. An amount of HCl is added to each well and the plates are dried. The plates are rinsed in buffer and bovine serum albumin (BSA) is added to block non-specific binding sites on the collagen. Samples containing labeled peptide (for example, biotinylated peptide) which is known to inhibit collagen self-assembly and unlabeled test peptide at various concentrations are premixed and are added to the wells. […] The wells are incubated for a period of time, the plates are washed and streptavidin conjugated to alkaline phosphatase is added. Incubation is continued for a further period of time following which a developing reagent is added to the wells. The amount of binding of the labeled peptide to the collagen is assessed and the degree of inhibition of binding by the test peptide is also assessed. Any test peptide which inhibits binding of the labeled peptide is isolated and is tested further for the ability to inhibit collagen self-assembly in the assays described herein in the description of FIGS. 1, 2 and 3.
To define the telopeptide binding site with a competitive assay, 96-well titiation plates (Immulon 3, Dynatech Laboratories, Inc.) were used. Seventy microliters of the solution containing […] of monomeric collagen (Vitrogen 100, Collagen Biomaterials) in 0.01 N HCl was added to each well, and the plates were dried at room temperature. The plates were rinsed with sterile phosphate buffered saline and non-specific binding sites were blocked with 1% bovine serum albumin. […] As a negative control, peptide α2-218/233 was used at concentrations from […]. […] After 2 hours of incubation, the reaction was measured with microtiter plate reader (Dynatech Laboratories) using a 405 nanometer filter. […]

A further assay concerns the target type I collagen (Homo sapiens, UniProt P02452). Kind of assay: Phage display peptide library panning, ligand type I collagen in all three cycles. The format is binding. To be noted: ligand Type I Collagen x3. From the text:
(§1) A comrnmercially-available phage-display peptide library was used to identify peptides that bind to the telopeptide binding region of type I collagen (i.e. amino acid residues 776–797). The library comprised phage particles having about 1.9×10^9 distinct linear peptide sequences.
(§2) For the experiments described in this Example, either type I collagen or a 22-mer synthetic peptide having the amino acid sequence of residues 776–797 of type I collagen was bound to the walls of individual wells of microtiter plates. Aliquots of the phage-display peptide library were added to and incubated with the wells. Thereafter, the microtiter wells were rinsed to remove non-specifically-binding library particles, and specifically-binding library particles were eluted using a solution comprising at least one of: • the 22-mer synthetic peptide having the amino acid sequence of residues 776–797 of type I collagen; • type I collagen; and • glycine HCl buffer having a pH of 2.2.
(§3) Eluted specifically-binding library particles were added to and incubated with microtiter plates having either type I collagen or the 22-mer synthetic peptide bound to the wells thereof, and washing and elution steps were repeated. A total of three cycles of incubation-washing-elution were performed. Following these three cycles, specifically-binding phage particles were isolated, and the amino acid sequence of the peptide encoded by each of these particles was determined by amplifying and sequencing the nucleic acid contained within the particle.
Amino acid sequences of the random peptide region carried by discrete specifically-binding phage particles are indicated in Table II, together with the identity of the ligand bound to the microtiter wells in each of the three incubation-washing-elution cycles. […]

Assay [3] concerns the target T3, α1-776/796 (telopeptide binding region of type I collagen) (Homo sapiens, UniProt P02452).
T3 construct: host or cells: synthetic peptide
The assay is described as follows: Phage display peptide library panning, ligand α1-776/796 peptide in all three cycles. To be noted: ligand α1-776/796 x3.
Source text: as §1, §2, §3
Amino acid sequences of the random peptide region carried by discrete specifically-binding phage particles are indicated in Table II, together with the identity of the ligand bound to the microtiter wells in each of the three incubation-washing-elution cycles. These isolated peptides, or peptides having no more than about fifty, preferably no more than twenty, even more preferably no more than ten, and still more preferably no more than five amino acid residues at one or both ends thereof, may be used to inhibit collagen self-assembly by contacting a collagen molecule such as a collagen triple helix, with one of these peptides.

T2 sequence (P02453 178-1191 limits assumed): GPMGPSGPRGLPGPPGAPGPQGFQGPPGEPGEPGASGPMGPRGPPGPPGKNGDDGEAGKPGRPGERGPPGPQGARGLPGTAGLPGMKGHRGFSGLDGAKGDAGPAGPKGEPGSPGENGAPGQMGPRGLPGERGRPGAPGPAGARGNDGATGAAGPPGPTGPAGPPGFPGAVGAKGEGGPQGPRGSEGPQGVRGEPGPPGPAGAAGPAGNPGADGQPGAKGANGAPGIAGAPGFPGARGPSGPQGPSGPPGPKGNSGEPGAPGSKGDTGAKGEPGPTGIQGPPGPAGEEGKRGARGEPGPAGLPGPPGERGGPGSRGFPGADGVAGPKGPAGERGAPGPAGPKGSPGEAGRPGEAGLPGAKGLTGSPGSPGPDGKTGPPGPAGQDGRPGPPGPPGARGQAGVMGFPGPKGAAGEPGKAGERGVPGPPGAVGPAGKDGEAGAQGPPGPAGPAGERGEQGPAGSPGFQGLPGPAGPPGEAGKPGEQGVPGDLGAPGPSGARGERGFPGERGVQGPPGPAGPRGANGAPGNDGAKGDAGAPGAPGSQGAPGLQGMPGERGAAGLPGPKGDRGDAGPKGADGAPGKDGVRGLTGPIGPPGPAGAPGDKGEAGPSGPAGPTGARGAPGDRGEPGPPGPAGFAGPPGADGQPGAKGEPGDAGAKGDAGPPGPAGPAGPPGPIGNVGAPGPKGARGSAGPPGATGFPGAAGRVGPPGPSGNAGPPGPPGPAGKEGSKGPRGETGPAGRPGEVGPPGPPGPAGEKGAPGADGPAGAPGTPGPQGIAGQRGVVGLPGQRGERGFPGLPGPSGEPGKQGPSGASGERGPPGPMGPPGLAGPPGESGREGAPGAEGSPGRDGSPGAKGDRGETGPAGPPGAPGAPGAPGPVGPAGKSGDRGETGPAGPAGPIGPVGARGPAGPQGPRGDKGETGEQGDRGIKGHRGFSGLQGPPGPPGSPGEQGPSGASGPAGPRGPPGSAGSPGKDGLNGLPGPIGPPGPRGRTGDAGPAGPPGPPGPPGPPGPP
T1 sequence (P02452 162-1218 limits assumed): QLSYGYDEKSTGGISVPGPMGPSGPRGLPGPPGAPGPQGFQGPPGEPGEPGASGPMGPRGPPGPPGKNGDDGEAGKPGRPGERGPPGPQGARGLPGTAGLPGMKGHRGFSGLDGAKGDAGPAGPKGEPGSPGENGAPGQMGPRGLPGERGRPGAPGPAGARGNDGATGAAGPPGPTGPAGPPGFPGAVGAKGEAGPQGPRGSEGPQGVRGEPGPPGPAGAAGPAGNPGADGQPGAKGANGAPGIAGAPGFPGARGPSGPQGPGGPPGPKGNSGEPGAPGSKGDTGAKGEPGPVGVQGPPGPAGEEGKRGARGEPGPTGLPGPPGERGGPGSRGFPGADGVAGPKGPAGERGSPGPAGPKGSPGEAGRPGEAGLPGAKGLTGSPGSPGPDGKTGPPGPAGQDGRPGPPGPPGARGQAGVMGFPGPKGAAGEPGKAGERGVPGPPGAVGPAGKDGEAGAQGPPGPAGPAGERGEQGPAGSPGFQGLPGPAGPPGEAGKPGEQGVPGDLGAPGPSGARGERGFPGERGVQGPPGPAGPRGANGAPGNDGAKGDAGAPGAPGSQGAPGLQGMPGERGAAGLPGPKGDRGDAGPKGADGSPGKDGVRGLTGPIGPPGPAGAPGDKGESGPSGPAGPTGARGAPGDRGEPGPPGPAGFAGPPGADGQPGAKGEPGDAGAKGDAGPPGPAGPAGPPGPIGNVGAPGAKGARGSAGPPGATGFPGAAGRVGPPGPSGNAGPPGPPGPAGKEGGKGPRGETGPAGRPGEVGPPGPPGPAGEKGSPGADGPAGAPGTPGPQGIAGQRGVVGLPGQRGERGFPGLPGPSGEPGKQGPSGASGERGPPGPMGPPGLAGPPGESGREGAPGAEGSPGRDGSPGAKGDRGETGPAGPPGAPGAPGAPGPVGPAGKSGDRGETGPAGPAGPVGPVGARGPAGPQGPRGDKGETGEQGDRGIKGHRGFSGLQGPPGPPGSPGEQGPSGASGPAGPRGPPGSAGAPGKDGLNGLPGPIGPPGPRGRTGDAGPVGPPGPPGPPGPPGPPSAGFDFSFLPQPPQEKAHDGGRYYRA
T1 sequence (P08123 80-1119 partner limits assumed): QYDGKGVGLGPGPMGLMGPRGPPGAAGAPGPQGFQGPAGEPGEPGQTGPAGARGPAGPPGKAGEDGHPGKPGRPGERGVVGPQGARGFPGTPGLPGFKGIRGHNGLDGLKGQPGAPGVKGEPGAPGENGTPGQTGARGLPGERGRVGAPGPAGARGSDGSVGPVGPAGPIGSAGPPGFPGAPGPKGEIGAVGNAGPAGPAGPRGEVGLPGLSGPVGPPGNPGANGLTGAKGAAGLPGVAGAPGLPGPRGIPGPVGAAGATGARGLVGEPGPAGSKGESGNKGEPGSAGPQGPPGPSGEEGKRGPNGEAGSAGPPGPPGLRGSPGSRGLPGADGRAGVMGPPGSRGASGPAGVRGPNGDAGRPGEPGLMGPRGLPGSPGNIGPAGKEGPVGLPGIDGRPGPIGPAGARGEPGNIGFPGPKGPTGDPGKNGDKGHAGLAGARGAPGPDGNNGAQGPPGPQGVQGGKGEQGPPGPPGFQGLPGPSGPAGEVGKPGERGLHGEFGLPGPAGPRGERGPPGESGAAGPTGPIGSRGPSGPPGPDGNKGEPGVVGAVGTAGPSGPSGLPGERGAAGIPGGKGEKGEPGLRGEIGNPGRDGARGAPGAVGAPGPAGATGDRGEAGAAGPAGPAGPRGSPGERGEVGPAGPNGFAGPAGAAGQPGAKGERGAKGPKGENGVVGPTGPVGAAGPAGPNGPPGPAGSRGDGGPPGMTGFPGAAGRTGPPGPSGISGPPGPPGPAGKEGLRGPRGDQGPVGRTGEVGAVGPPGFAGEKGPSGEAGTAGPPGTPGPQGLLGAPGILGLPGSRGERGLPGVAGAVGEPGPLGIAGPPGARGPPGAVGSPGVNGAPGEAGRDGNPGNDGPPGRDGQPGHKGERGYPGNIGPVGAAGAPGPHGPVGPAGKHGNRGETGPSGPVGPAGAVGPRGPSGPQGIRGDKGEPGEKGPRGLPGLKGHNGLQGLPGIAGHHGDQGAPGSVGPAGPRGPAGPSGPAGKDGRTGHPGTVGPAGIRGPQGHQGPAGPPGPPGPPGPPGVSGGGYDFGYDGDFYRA
Chain of type I collagen (P02452 162-1218 limits assumed): as the sequence (P02452 162-1218 limits assumed) above
Chain of type I collagen (P08123 80-1119 partner limits assumed): as the sequence (P08123 80-1119 partner limits assumed) above

Take ADGPAGAPGTPGPQGIAGQRGVVGL [Peptide F6]: in assay [1], the “inhibition of fibril assembly (in words)” value is recorded as “little if any inhibition”.

For the substance AKGAAGLPGVAGAPGL [Peptide F1], in assay [1], the “inhibition of fibril assembly (in words)” value was “little if any inhibition”. In assay [2] (negative control, 10 to 500 mM), the “competition for the binding site with biotinylated telopeptides” value is reported as “no competition”.

DFRYRA [Peptide F10, DFRYRA]: the “inhibition of fibril assembly (in words)” value in assay [1] is reported as “Smaller effects”.

On to GGGSDSGSD [F7/B], for which the “inhibition of fibril assembly (in words)” value in assay [1] is on record as “abolished inhibitory effects”.

As to GGGYDFGYD [Peptide F7], the “inhibition of fibril assembly (in words)” value in assay [1] was “equally effective as the intact F3”.

As for GGGYDFGYDGDFYRA [Peptide F3], the “effect on fibril formation when added during the lag period” value in assay [1] (2.5 mM added during the lag phase) is listed as “inhibited fibril formation”. Also, the “effect on fibril assembly when added during the mid-propagation phase” value in assay [1] (2.5 mM added during the mid-propagation phase) is “little of any effect”. Besides, in assay [1] (2.5 mM, sealed chamber, 37° C., 24 hours), the “appearance of fibrils by Dark field light microscopy” value was “No fibrils appeared”. Also, in assay [1] (added at or before the first one-third of the lag phase), the “effect on fibril assembly if added at or before the first one-third of the lag phase” value is “completely prevented fibril assembly”. The “effect on fibril assembly if added after the first one-third of the lag phase” value in assay [1] (added thereafter) is on record as “much less effect”. Besides, the “inhibition of fibril assembly (in words)” value in assay [1] is given as “almost completely inhibited”.

Take GGGYSFGYS [F7/A]: the “inhibition of fibril assembly (in words)” value in assay [1] is recorded as “no effect on inhibition of fibril assembly”.

As to GYDFGYDGDF [Peptide F9], the “inhibition of fibril assembly (in words)” value in assay [1] was “Smaller effects”.

Take GYDGDFYRA [Peptide F8]: the “inhibition of fibril assembly (in words)” value in assay [1] is reported as “equally effective as the intact F3”.

Take “LIQPPRYSTTVS (Phage Display Library Peptide)”: the “# of Isolated Particles Having this Sequence” value with type I collagen (eluent pH 2.2 buffer) was determined as 10.

With “LLPHSVSIPPDA (Phage Display Library Peptide)”, the “# of Isolated Particles Having this Sequence” value with type I collagen (eluent Type I Collagen) is given as 10.

For “QLLEPVNLSTGP (Phage Display Library Peptide)”, the “# of Isolated Particles Having this Sequence” value in assay [3] (eluent α1-776/796) was 7.

Consider QLSYGYDEKSTGGISVP [Peptide F4], for which, in assay [1], the “inhibition of fibril assembly (in words)” value is listed as “almost completely inhibited”.

Turning to “SHALPLTWSTAA (Phage Display Library Peptide)”, the “# of Isolated Particles Having this Sequence” value in assay [3] (eluent α1-776/796) was determined as 1; with type I collagen (eluent α1-776/796), 10.

In the case of “TFWHLTPPRGYY (Phage Display Library Peptide)”, in assay [3] (eluent pH 2.2 buffer), the “# of Isolated Particles Having this Sequence” value was 3→.

Regarding “VHWWIPVSTGTA (Phage Display Library Peptide)”, the “# of Isolated Particles Having this Sequence” value in assay [3] (eluent pH 2.2 buffer) is 6→.

“YGAGFDDGDYGYRYG [SC/F3, peptide having the same amino acid residues as F3, but in a scrambled order, reference compound]”: the “inhibition of fibril assembly (in words)” value in assay [1] was “no effect”.

“YGSPHPSRPPGA (Phage Display Library Peptide)”: the results for the “# of Isolated Particles Having this Sequence” value in assay [3] (eluent Type I Collagen) and in assay [3] (eluent α1-776/796) were 10 and 1→, respectively.

In the case of “α1-776/797: peptide with the sequence of the amino acids in positions 776 to 797 of the α1(I) chain (IAGQRGVVGLPGQRGERGFPGL)”, the “competition with binding of biotinylated C-telopeptide of the α1(I) chain (peptide F2) to type I collagen” value in assay [2] (50 mM biotinylated F2, 10 to 500 mM competitor, 25° C., 12 h) was “effectively competed”. For the same substance, the “competition with binding of biotinylated C-telopeptide of the α2(I) chain (peptide F3) to type I collagen” value in assay [2] (50 mM biotinylated F3, 10 to 500 mM competitor, 25° C., 12 h) is given as “effectively competed”.
